By AUC(0-inf) is commonly meant the area under the concentration-time curve extrapolated to infinity. A higher AUC(0-inf) goes with more exposure. For orientation: AUC(0-t) means the area under the concentration-time curve up to a stated or last time point. A lower AUC(0-t) goes with less exposure. Broadly, the Cmax is the highest concentration seen after dosing. Broadly, the Vd/F is the apparent distribution volume after extravascular dosing. As a reminder, the half-life is the time in which the quantity being followed falls by half. A low value points to rapid decline. The term Tmax denotes the time at which the peak concentration occurs.

This is an account of results in paper PMC6096703, “Pharmacokinetic drug interaction and safety after coadministration of clarithromycin, amoxicillin, and ilaprazole: a randomised, open-label, one-way crossover, two parallel sequences study” (European Journal of Clinical Pharmacology, 2018).

Data set [1] in a line: Safety assessment: adverse events and adverse drug reactions. The class given is in vivo, healthy Korean male volunteers. As to conditions: Part I. The method, then: Safety and tolerability were evaluated throughout the study. The assessments included monitoring of all adverse events (AEs) based on physical examinations, vital signs, 12-lead ECG, routine haematology, serum chemistry, and urinalysis. The subjects were instructed to notify the study physicians or nurses of any AEs that occurred during the study. All AEs reported by subjects or detected in the assessments were recorded, and the investigators determined their relationship to the treatment. The severity of the AEs was evaluated based on the Common Terminology Criteria for Adverse Events (CTCAE, version 4.03).

Data set [2] in a line: Pharmacokinetic assessment of plasma concentrations (LC-MS/MS, non-compartmental analysis) after mono/dual and triple therapy. Particulars: for AUC(0-inf) / AUC(0-t) / Cmax / Vd/F / half-life / Tmax: male, human, plasma; for AUC(0-inf) / AUC(0-t) / Cmax / Vd/F / half-life: oral; for Tmax: po, median (min–max).
Experimental: (§1) This was a randomised, open-label, one-way crossover, two parallel sequences study. A total of 32 subjects were randomised and assigned to one of the two parts. Subjects assigned to part 1 received a single dose of ilaprazole (Noltec Tab., IL-YANG Pharmaceutical Co.) 10 mg in the first period. Then, after a washout period of 10 days, clarithromycin (Klaricid Film Coated Tab., Abbott Korea) 500 mg and amoxicillin (Amoxicillin Cap. 500 mg Chongkundang, Chong Kun Dang Pharmaceutical Co., Korea) 1000 mg were administered twice daily for 6 days in the second period. Ilaprazole 10 mg was coadministered with clarithromycin and amoxicillin on the day 5 of the second period.
(§2) Subjects assigned to part 2 received single doses of both clarithromycin 500 mg and amoxicillin 1000 mg in the first period; after a washout period of 10 days, ilaprazole 10 mg was administered twice daily for 6 days in the second period. Clarithromycin 500 mg and amoxicillin 1000 mg were coadministered with ilaprazole on the day 5 of the second period (Fig. 1).
(§3) Serial blood samples were collected in anti-coagulated EDTA-K2 tubes at 0 (pre-dose), 1, 2, 2.5, 3, 3.5, 4, 4.5, 5, 6, 8, 12, 24, and 48 h after dosing of ilaprazole in part 1. The PK sampling points in part 2 were 0 (pre-dose), 0.5, 0.75, 1, 1.5, 2, 2.5, 3, 4, 6, 8, 12, 24, and 48 h after dosing of clarithromycin and amoxicillin. Blood sampling points were determined considering the time to reach peak concentration (Tmax) and elimination half-life (t1/2) of ilaprazole, clarithromycin, and amoxicillin [9, 10, 20]. Plasma concentrations of ilaprazole, clarithromycin, and amoxicillin were analysed using liquid chromatography-tandem mass spectrometry (LC-MS/MS). Samples were centrifuged for 10 min under 4 °C at 2000×g and stored below − 70 °C until analysis.
(§4) For the analysis of ilaprazole, 100 μL of plasma was added to polypropylene tubes and mixed with 10 μL of the internal standard (omeprazole) solution and 1 mL of acetonitrile. The mixture was vortexed for 1 min and centrifuged for 5 min at 11,337×g. The supernatant (100 μL) was collected and reconstituted with 600 μL of mobile phase. The supernatant (2 μL) was then injected into an LC-MS/MS system. An LC system (Shiseido Nanospace SI-2, Shiseido, Tokyo, Japan) was used with a mobile phase (10 mM ammonium formate/acetonitrile = 50/50 [v/v]) at 40 °C. Chromatographic separation was performed at a flow rate of 0.25 mL/min. The transition of ilaprazole was detected at m/z 367.0 to 184.2 by using an MS/MS system (API4000®, AB SCIEX, Washington DC, USA) in the multiple reaction monitoring (MRM) mode with a positive electrospray ionisation (ESI) source. The calibration curve was linear over the range of 5–1000 ng/mL, and the correlation coefficient (r) was > 0.995.
(§5) For the analysis of clarithromycin, 100 μL of plasma was added to polypropylene tubes and mixed with 10 μL of the internal standard (clarithromycin-N-methyl-^13C, d3) solution and 500 μL of acetonitrile. The mixture was vortexed for 1 min and centrifuged for 5 min at 11,337×g. The supernatant (50 μL) was collected and reconstituted with 1000 μL of 50% acetonitrile. The supernatant (3 μL) was then injected into the LC-MS/MS system. The LC system was used with a mobile phase (10 mM ammonium formate/acetonitrile = 20/80 [v/v]) at 40 °C. Chromatographic separation was performed at a flow rate of 0.2 mL/min. The transition of clarithromycin was detected at m/z 748.4 to 590.4 using an MS/MS system (4000QTRAP, AB SCIEX, Washington DC, USA) in the MRM mode with a positive ESI source. The calibration curve was linear over the range of 10–7000 ng/mL, and the correlation coefficient (r) was > 0.995.
(§6) For the analysis of amoxicillin, 100 μL of plasma was added to polypropylene tubes and mixed with 10 μL of internal standard (amoxicillin-d4) solution and 500 μL of acetonitrile. The mixture was vortexed for 1 min and centrifuged for 5 min at 11,337×g.
The conditions of data set [3]: in vivo.
Experimental: as §1, §2, §3, §4, §5, §6
On the set-up of data set [4]: method as in PMID 16231964. Particulars: cited from earlier work.
Data set [5] in a line: clinical. Particulars: male, human, in vivo, t1/2.
Experimental: as §1, §2, §3, §4, §5, §6
Setting [6] is: ilaprazole in triple therapy, period 2 of part 1, N = 13, arithmetic mean (SD).
The mark [7] stands for this setting: 10 mg, ilaprazole monotherapy, period 1 of part 1, N = 13, arithmetic mean (SD).
Setting [8] is: dual therapy, period 1 of part 2, N = 15, arithmetic mean (SD).
Setting [9] is: AUCinf, dual therapy, period 1 of part 2, N = 15, arithmetic mean (SD).
[10] abbreviates: AUCinf, geometric least square mean, dual therapy, period 1 of part 2, N = 15.
Setting [11] is: AUCinf, geometric least square mean, triple therapy, period 2 of part 2, N = 15.
Setting [12] is: AUCinf, triple therapy, period 2 of part 2, N = 15, arithmetic mean (SD).
[13] abbreviates: AUClast, dual therapy, period 1 of part 2, N = 15, arithmetic mean (SD).
The mark [14] stands for this setting: AUClast, geometric least square mean, dual therapy, period 1 of part 2, N = 15.
[15] abbreviates: AUClast, geometric least square mean, triple therapy, period 2 of part 2, N = 15.
Where [16] appears, read: AUClast, triple therapy, period 2 of part 2, N = 15, arithmetic mean (SD).
Where [17] appears, read: geometric least square mean, dual therapy, period 1 of part 2, N = 15.
Setting [18] is: geometric least square mean, triple therapy, period 2 of part 2, N = 15.
The mark [19] stands for this setting: triple therapy, period 2 of part 2, N = 15, arithmetic mean (SD).
[20] abbreviates: clarithromycin 500 mg + amoxicillin 1000 mg oral single dose (dual therapy, period 1 of part 2), N = 15.
Setting [21] is: clarithromycin 500 mg + amoxicillin 1000 mg oral with ilaprazole 10 mg (triple therapy, day 5 of period 2, part 2), N = 15.

`COc1ccnc(C[S+]([O-])c2nc3cc(-n4cccc4)ccc3[nH]2)c1C` (centres unmarked) [Ilaprazole, ilaprazole]: the “Subjects with adverse drug reactions” value in data set [1] was “no drug-related AE”. Besides, the “Subjects with any adverse event” value in data set [1] is on record as 5 (31.3) number (%) of subjects. Also, the CL/F in data set [2] (setting [6]) was 3.04 (1.11) L/h; in data set [2] (ilaprazole monotherapy, period 1 of part 1, N = 13, arithmetic mean (SD)) it was 3.28 (1.23) L/h. For the same compound, the AUC(0-inf) in data set [2] (10 mg, AUCinf, geometric least square mean, ilaprazole monotherapy, period 1 of part 1, N = 13) was determined as 3220 ng·h/mL; in data set [2] (10 mg, AUCinf, ilaprazole monotherapy, period 1 of part 1, N = 13, arithmetic mean (SD)), 3390 ng·h/mL; in data set [2] (10 mg, mean AUCinf, ilaprazole monotherapy), 3390 ng·h/mL; in data set [2] (AUCinf, geometric least square mean, ilaprazole in triple therapy, period 2 of part 1, N = 13), 3490 ng·h/mL; in data set [2] (AUCinf, ilaprazole in triple therapy, period 2 of part 1, N = 13, arithmetic mean (SD)), 3680 ng·h/mL; in data set [2] (mean AUCinf, ilaprazole in triple therapy) it was 3680 ng·h/mL. The AUC(0-t) in data set [2] (10 mg, AUClast, geometric least square mean, ilaprazole monotherapy, period 1 of part 1, N = 13) was 3140 ng·h/mL; in data set [2] (10 mg, AUClast, ilaprazole monotherapy, period 1 of part 1, N = 13, arithmetic mean (SD)), 3300 ng·h/mL; in data set [2] (10 mg, mean AUClast, ilaprazole monotherapy), 3300 ng·h/mL; in data set [2] (AUClast, geometric least square mean, ilaprazole in triple therapy, period 2 of part 1, N = 13), 3350 ng·h/mL; in data set [2] (AUClast, ilaprazole in triple therapy, period 2 of part 1, N = 13, arithmetic mean (SD)), 3540 ng·h/mL; in data set [2] (mean AUClast, ilaprazole in triple therapy) it was 3540 ng·h/mL. The Cmax in data set [2] (10 mg, geometric least square mean, ilaprazole monotherapy, period 1 of part 1, N = 13) came to 447 ng/mL; in data set [2] (setting [7]), 479 ng/mL; in data set [2] (geometric least square mean, ilaprazole in triple therapy, period 2 of part 1, N = 13), 414 ng/mL; in data set [2] (setting [6]) it was 446 ng/mL. Moreover, the Vd/F in data set [2] (setting [7]) amounted to 19.5 L; in data set [2] (setting [6]), 20.4 L. For the same compound, the half-life was 4.16 h in data set [2] (10 mg, t1/2, ilaprazole monotherapy, period 1 of part 1, N = 13, arithmetic mean (SD)) and 4.66 h in data set [2] (t1/2, ilaprazole in triple therapy, period 2 of part 1, N = 13, arithmetic mean (SD)). Further, the Tmax was 3.5 h in data set [2] (10 mg, ilaprazole 10 mg oral single dose alone (monotherapy, period 1 of part 1), N = 13); 3 h in data set [2] (ilaprazole 10 mg oral with clarithromycin 500 mg and amoxicillin 1000 mg (triple therapy, day 5 of period 2, part 1), N = 13).
In the case of `CC[C@H]1OC(=O)[C@H](C)[C@@H](O[C@H]2C[C@@](C)(OC)[C@@H](O)[C@H](C)O2)[C@H](C)[C@@H](O[C@@H]2O[C@H](C)C[C@H](N(C)C)[C@H]2O)[C@](C)(OC)C[C@@H](C)C(=O)[C@H](C)[C@@H](O)[C@]1(C)O` [Clarithromycin, clarithromycin], the CL/F in data set [2] (setting [8]) was 36.6 (12.7) L/h; in data set [2] (setting [19]), 34.4 (15.1) L/h. In addition, the AUC(0-inf) in data set [2] (setting [9]) turned out to be 15000 ng·h/mL; in data set [2] (setting [10]), 14400 ng·h/mL; in data set [2] (setting [11]), 15700 ng·h/mL; in data set [2] (setting [12]) it was 16900 ng·h/mL. Moreover, the AUC(0-t) in data set [2] (setting [13]) worked out at 14600 ng·h/mL; in data set [2] (setting [14]), 14000 ng·h/mL; in data set [2] (setting [15]), 15300 ng·h/mL; in data set [2] (setting [16]), 16500 ng·h/mL. Moreover, the Cmax in data set [2] (setting [8]) was 1870 ng/mL; in data set [2] (setting [17]), 1770 ng/mL; in data set [2] (setting [18]), 1590 ng/mL; in data set [2] (setting [19]) it was 1720 ng/mL. The Vd/F in data set [2] (setting [8]) is 247 L; in data set [2] (setting [19]), 230 L. For the same compound, the half-life in data set [2] (t1/2, dual therapy, period 1 of part 2, N = 15, arithmetic mean (SD)) was 4.84 h; in data set [2] (t1/2, triple therapy, period 2 of part 2, N = 15, arithmetic mean (SD)) it was 4.83 h. Besides, the Tmax in data set [2] (setting [20]) was 2 h; in data set [2] (setting [21]) it was 2.5 h.
As for `CC1(C)S[C@@H]2[C@H](NC(=O)[C@H](N)c3ccc(O)cc3)C(=O)N2[C@H]1C(=O)O` [Amoxicillin, amoxicillin], in data set [3], the “Plasma amoxicillin concentrations at 48 h after study drug administration” value is reported as “not detected”. Besides, the “AUCinf GMR (90% CI), triple therapy/dual therapy” value in data set [3] (male, human) is 0.99 (0.83–1.17). Moreover, the “AUClast GMR (90% CI), triple therapy/dual therapy” value in data set [3] (male, human) is 0.98 (0.83–1.16). In addition, in data set [3] (male, human), the t1/2 was 1.96 (3.26) h. Also, the bioavailability in data set [4] is 89–98%. Besides, the half-life in data set [5] was 1.18 h. The AUC(0-inf) came to 28500 ng·h/mL in data set [2] (setting [9]), 27200 ng·h/mL in data set [2] (setting [10]), 26900 ng·h/mL in data set [2] (setting [11]) and 27400 ng·h/mL in data set [2] (setting [12]). Moreover, the AUC(0-t) in data set [2] (setting [13]) turned out to be 27900 ng·h/mL; in data set [2] (setting [14]), 26700 ng·h/mL; in data set [2] (setting [15]), 26200 ng·h/mL; in data set [2] (setting [16]), 26700 ng·h/mL. Moreover, the Cmax came to 9370 ng/mL in data set [2] (setting [8]), 9140 ng/mL in data set [2] (setting [17]), 7910 ng/mL in data set [2] (setting [18]) and 8140 ng/mL in data set [2] (setting [19]). Moreover, the Vd/F in data set [2] (setting [8]) worked out at 64.7 L; in data set [2] (setting [19]), 95.1 L. Also, the figures for the Tmax in data set [2] (setting [20]) and in data set [2] (setting [21]) were 1.5 h and 2 h, respectively.
